The values that follow come from patent publication US8604218B2, “Cytoskeletal active rho kinase inhibitor compounds, composition and use” (Inspire Pharmaceuticals, Inc., priority 2006, dated 2013).

pIC50: −log10 of the molar value.

ROCK2, sequence (O75116 11-552): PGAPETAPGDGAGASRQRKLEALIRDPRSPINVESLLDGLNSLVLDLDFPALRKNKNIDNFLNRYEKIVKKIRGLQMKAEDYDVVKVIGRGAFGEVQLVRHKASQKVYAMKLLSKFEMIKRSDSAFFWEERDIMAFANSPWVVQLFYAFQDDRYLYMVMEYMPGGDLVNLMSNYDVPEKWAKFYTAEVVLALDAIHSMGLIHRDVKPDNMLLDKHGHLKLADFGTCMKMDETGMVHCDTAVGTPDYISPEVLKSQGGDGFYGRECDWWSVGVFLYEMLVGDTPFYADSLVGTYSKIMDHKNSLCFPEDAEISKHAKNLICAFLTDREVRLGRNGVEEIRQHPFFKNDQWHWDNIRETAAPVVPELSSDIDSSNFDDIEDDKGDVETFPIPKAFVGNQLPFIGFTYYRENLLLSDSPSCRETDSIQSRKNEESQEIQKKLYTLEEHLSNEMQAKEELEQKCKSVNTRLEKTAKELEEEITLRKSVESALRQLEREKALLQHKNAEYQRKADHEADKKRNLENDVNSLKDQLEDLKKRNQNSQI

The target in this experiment is ROCK2 (Homo sapiens (Human), UniProt O75116). The experiment in a line: Rho Kinase Inhibition Assay (IMAP fluorescence polarization). It counts as biochemical. The note with it: isolated enzyme, 10 μM ATP, 60 minutes at room temperature. On the procedure:
Following the preincubation, 10 μM ATP was added to initiate the reaction. After 60 minutes at room temperature, Molecular Devices IMAP™ binding solution was added to bind phosphorylated substrate. After 30 minutes of incubation in the presence of the IMAP™ beads the fluorescence polarization was read and the ratio was reported as mP. IC50 results were calculated using the Prism software from Graphpad.
See Tian et al., Arch. Ophthalmol. […] Ophthalmol. Vis. […] Ophthalmol. […] Cytoskel. […] Ophthalmol. Vis. […] Ophthalmol. Vis.
(In general: In fluorescence polarisation assays a small probe gives low polarisation when free and higher when bound to something large.)
For the molecule `CS(=O)(=O)Nc1cccc(CN2CCC[C@H](Nc3ccc4[nH]ncc4c3)C2)c1` [Compound 1.091, (S)-N-(3-((3-(1H-indazol-5-ylamino)piperidin-1-yl)methyl)phenyl)methanesulfonamide], the pIC50 (commonly the IC50 on a negative log10 scale, so that one unit is a factor of ten) was 7.31.

For `OCCOc1cccc(CN2CC[C@H](Nc3ccc4[nH]ncc4c3)C2)c1` [Compound 1.094, (S)-2-(3-((3-(1H-indazol-5-ylamino)pyrrolidin-1-yl)methyl)phenoxy)ethanol], the negative-log IC50 (pIC50) is 6.33.

The molecule `NC(=O)COc1cccc(CN2CCCC(Nc3ccc4[nH]ncc4c3)C2)c1` (centres unmarked) [Compound 1.098, 2-(3-((3-(1H-indazol-5-ylamino)piperidin-1-yl)methyl)phenoxy)acetamide] gave a pIC50 of 6.60. This pIC50 lies 0.27 log units higher than the previous one.

Turning to `FC(F)(F)c1cccc(Oc2cccc(CN3CCCC(Nc4ccc5[nH]ncc5c4)C3)c2)c1` (centres unmarked) [Compound 1.070, N-(1-(3-(3-(trifluoromethyl)phenoxy)benzyl)piperidin-3-yl)-1H-indazol-5-amine], the negative-log IC50 (pIC50) was 5.18.

On to `CC(=O)Nc1ccc(CN2CCCC(Nc3cccc4cnccc34)C2)cc1` (centres unmarked) [Compound 2.004, N-(4-((3-(isoquinolin-5-ylamino)piperidin-1-yl)methyl)phenyl)acetamide], for which the pIC50 was 5.43.

The molecule `Nc1n[nH]c2ccc(NC3CCCN(Cc4ccccc4)C3)cc12` (centres unmarked) [Compound 1.050, N5-(1-benzylpiperidin-3-yl)-1H-indazole-3,5-diamine] showed a negative logarithm of the IC50 (pIC50) of 5.98.

The molecule `c1cc(N[C@@H]2CCN(Cc3ccc(C4CC4)cc3)C2)c2ccncc2c1` [Compound 2.022, (R)-N-(1-(4-cyclopropylbenzyl)pyrrolidin-3-yl)isoquinolin-5-amine] showed a negative logarithm of the IC50 (pIC50) of 6.51.

`OCCOc1cccc(CN2CCC[C@@H](Nc3ccc4[nH]ncc4c3)C2)c1` [Compound 1.092, (R)-2-(3-((3-(1H-indazol-5-ylamino)piperidin-1-yl)methyl)phenoxy)ethanol] showed a pIC50 of 6.39.

The molecule `CS(=O)(=O)c1ccc(CN2CCC(Nc3cccc4cnccc34)C2)cc1` (centres unmarked) [Compound 2.005, N-(1-(4-(methylsulfonyl)benzyl)pyrrolidin-3-yl)isoquinolin-5-amine] had a negative-log IC50 (pIC50) of 5.75.

For `c1cn(-c2ccc(CN3CCCC(Nc4ccc5[nH]ncc5c4)C3)cc2)cn1` (centres unmarked) [Compound 1.010], the negative-log IC50 (pIC50) was 5.55.

In the case of `CS(=O)(=O)Nc1cccc(CN2CCC[C@H](Nc3cccc4cnccc34)C2)c1` [Compound 2.037, (S)-N-(3-((3-(isoquinolin-5-ylamino)piperidin-1-yl)methyl)phenyl)methanesulfonamide], the pIC50 was 5.51.

`C[C@@H](O)COc1cccc(CN2CCC[C@H](Nc3ccc4[nH]ncc4c3)C2)c1` [Compound 1.118, (R)-1-(3-(((S)-3-(1H-indazol-5-ylamino)piperidin-1-yl)methyl)phenoxy)propan-2-ol] had a pIC50 of 5.85.

Molecule `CN(c1cccc(CN2CCCC(Nc3ccc4[nH]ncc4c3)C2)c1)S(C)(=O)=O` (centres unmarked) [Compound 1.121, N-(3-((3-(1H-indazol-5-ylamino)piperidin-1-yl)methyl)phenyl)-N-methylmethanesulfonamide] had a negative logarithm of the IC50 (pIC50) of 6.24.

On to `c1cc(N[C@H]2CCN(Cc3ccc(SC4CC4)cc3)C2)c2ccncc2c1` [Compound 2.024, (S)-N-(1-(4-(cyclopropylthio)benzyl)pyrrolidin-3-yl)isoquinolin-5-amine], for which the pIC50 is 5.05.

In the case of `Clc1ccc(Oc2cccc(CN3CCCC(Nc4ccc5[nH]ncc5c4)C3)c2)cc1` (centres unmarked) [Compound 1.069, N-(1-(3-(4-chlorophenoxy)benzyl)piperidin-3-yl)-1H-indazol-5-amine], the pIC50 was 5.22.

As for `CS(=O)(=O)Nc1cccc(CN2CC[C@H](Nc3ccc4[nH]ncc4c3)C2)c1` [Compound 1.095, (S)-N-(3-((3-(1H-indazol-5-ylamino)pyrrolidin-1-yl)methyl)phenyl)methanesulfonamide], the pIC50 was 6.19.

In the case of `Cc1ccc(CN2CCCC(Nc3ccc4[nH]ncc4c3)C2)c(C)c1` (centres unmarked) [Compound 1.024, N-(1-(2,4-dimethylbenzyl)piperidin-3-yl)-1H-indazol-5-amine], the negative-log IC50 (pIC50) was 6.97.

The molecule `c1cc(N[C@@H]2CCN(Cc3ccc(SC4CC4)cc3)C2)c2ccncc2c1` [Compound 2.021, (R)-N-(1-(4-(cyclopropylthio)benzyl)pyrrolidin-3-yl)isoquinolin-5-amine] showed a negative-log IC50 (pIC50) of 5.72. This pIC50 is 1.25 log units lower than that of the molecule before.

In the case of `NC(=O)Cn1ccc2cc(CN3CCCC(Nc4ccc5[nH]ncc5c4)C3)ccc21` (centres unmarked) [Compound 1.105, 2-(5-((3-(1H-indazol-5-ylamino)piperidin-1-yl)methyl)-1H-indol-1-yl)acetamide], the pIC50 was 6.76.

The molecule `C#Cc1cccc(CN2CCCC(Nc3ccc4[nH]ncc4c3)C2)c1` (centres unmarked) [Compound 1.047, N-(1-(3-ethynylbenzyl)piperidin-3-yl)-1H-indazol-5-amine] showed a pIC50 of 7.24. Compared with the last molecule, the pIC50 is 0.48 log units higher.

As to `CS(=O)(=O)Cc1ccc(CN2CCCC(Nc3ccc4[nH]ncc4c3)C2)cc1` (centres unmarked) [Compound 1.029, N-(1-(4-(methylsulfonylmethyl)benzyl)piperidin-3-yl)-1H-indazol-5-amine], the pIC50 was 4.93.

`c1cc(C2CC2)ccc1CN1CCCC(Nc2ccc3[nH]ncc3c2)C1` (centres unmarked) [Compound 1.020, N-(1-(4-cyclopropylbenzyl)piperidin-3-yl)-1H-indazol-5-amine]: the negative-log IC50 (pIC50) is 6.60.

For `C#Cc1ccc(CN2CCCC(Nc3ccc4[nH]ncc4c3)C2)cc1O` (centres unmarked) [Compound 1.083, 5-((3-(1H-indazol-5-ylamino)piperidin-1-yl)methyl)-2-ethynylphenol], the pIC50 was 5.14. This pIC50 is 1.46 log units lower than that of the molecule before.

`COc1ccc(CN2CCCC(Nc3cccc4cnccc34)C2)cc1` (centres unmarked) [Compound 2.001, N-(1-(4-methoxybenzyl)piperidin-3-yl)isoquinolin-5-amine]: the negative logarithm of the IC50 (pIC50) was 7.01.

On to `CSc1cccc(CN2CCCC(Nc3ccc4[nH]ncc4c3)C2)c1` (centres unmarked) [Compound 1.040, N-(1-(3-(methylthio)benzyl)piperidin-3-yl)-1H-indazol-5-amine], for which the pIC50 was 6.84.

The molecule `CS(=O)(=O)c1ccc(CN2CCCC(Nc3ccc4[nH]ncc4c3)C2)cc1` (centres unmarked) [Compound 1.001, N-(1-(4-(methylsulfonyl)benzyl)piperidin-3-yl)-1H-indazol-5-amine] gave a pIC50 of 6.45.

The molecule `c1cc(N2CCOCC2)ccc1CN1CCCC(Nc2ccc3[nH]ncc3c2)C1` (centres unmarked) [Compound 1.012, N-(1-(4-morpholinobenzyl)piperidin-3-yl)-1H-indazol-5-amine] showed a pIC50 of 4.91.

Consider `Clc1ccc(CN2CC[C@@H](Nc3cccc4cnccc34)C2)cc1` [Compound 2.027, (R)-N-(1-(4-chlorobenzyl)pyrrolidin-3-yl)isoquinolin-5-amine], for which the pIC50 is 6.92. Against the preceding molecule, the pIC50 is 2.01 log units higher.

As for `Nc1cc(CN2CCCC(Nc3ccc4[nH]ncc4c3)C2)ccc1Cl` (centres unmarked) [Compound 1.089, N-(1-(3-amino-4-chlorobenzyl)piperidin-3-yl)-1H-indazol-5-amine], the pIC50 is 7.53. This pIC50 is 0.61 log units higher than that of the molecule before.

`CS(=O)(=O)Nc1cccc(CN2CC[C@H](Nc3cccc4cnccc34)C2)c1` [Compound 2.035, (S)-N-(3-((3-(isoquinolin-5-ylamino)pyrrolidin-1-yl)methyl)phenyl)methanesulfonamide] gave a pIC50 of 5.49.

On to `O=C(COc1cccc(CN2CC[C@@H](Nc3cccc4cnccc34)C2)c1)N1CCOCC1` [Compound 2.043, (R)-2-(3-((3-(isoquinolin-5-ylamino)pyrrolidin-1-yl)methyl)phenoxy)-1-morpholinoethanone], for which the negative logarithm of the IC50 (pIC50) was 6.42.

The molecule `c1cc(N[C@H]2CCN(Cc3ccc(C4CC4)cc3)C2)c2ccncc2c1` [Compound 2.019, (S)-N-(1-(4-cyclopropylbenzyl)pyrrolidin-3-yl)isoquinolin-5-amine] showed a negative logarithm of the IC50 (pIC50) of 5.39.

`N#Cc1cccc(CN2CCC(Nc3cccc4cnccc34)C2)c1` (centres unmarked) [Compound 2.007, 3-((3-(isoquinolin-5-ylamino)pyrrolidin-1-yl)methyl)benzonitrile] had a negative logarithm of the IC50 (pIC50) of 5.44. This pIC50 and that of the molecule before are within 0.2 log units of each other.

In the case of `Brc1cccc(CN2CCCC(Nc3ccc4[nH]ncc4c3)C2)c1` (centres unmarked) [Compound 1.045, N-(1-(3-bromobenzyl)piperidin-3-yl)-1H-indazol-5-amine], the negative logarithm of the IC50 (pIC50) is 6.23.

`CC(=O)NCCOc1cccc(CN2CCCC(Nc3ccc4[nH]ncc4c3)C2)c1` (centres unmarked) [Compound 1.111, N-(2-(3-((3-(1H-indazol-5-ylamino)piperidin-1-yl)methyl)phenoxy)ethyl)acetamide]: the pIC50 was 6.23.

In turn, `Clc1ccc(CN2CCC(Nc3cccc4cnccc34)C2)cc1Cl` (centres unmarked) [Compound 2.016, N-(1-(3,4-dichlorobenzyl)pyrrolidin-3-yl)isoquinolin-5-amine] gave a pIC50 of 6.15.

As for `OCCn1ccc2cc(CN3CCCC(Nc4ccc5[nH]ncc5c4)C3)ccc21` (centres unmarked) [Compound 1.114, 2-(5-((3-(1H-indazol-5-ylamino)piperidin-1-yl)methyl)-1H-indol-1-yl)ethanol], the pIC50 was 5.83.

Molecule `CSc1ccc(CN2CC[C@H](Nc3cccc4cnccc34)C2)cc1` [Compound 2.029, (S)-N-(1-(4-(methylthio)benzyl)pyrrolidin-3-yl)isoquinolin-5-amine] showed a negative-log IC50 (pIC50) of 5.50.

`NCc1cccc(CN2CCCC(Nc3ccc4[nH]ncc4c3)C2)c1` (centres unmarked) [Compound 1.061, N-(1-(3-(aminomethyl)benzyl)piperidin-3-yl)-1H-indazol-5-amine]: the negative logarithm of the IC50 (pIC50) was 6.55.

Regarding `Brc1ccc(Br)c(CN2CCCC(Nc3ccc4[nH]ncc4c3)C2)c1` (centres unmarked) [Compound 1.071, N-(1-(2,5-dibromobenzyl)piperidin-3-yl)-1H-indazol-5-amine], the pIC50 is 5.25.

Turning to `OCCOc1cccc(CN2CCC(Nc3ccc4[nH]ncc4c3)C2)c1` (centres unmarked) [Compound 1.088, 2-(3-((3-(1H-indazol-5-ylamino)pyrrolidin-1-yl)methyl)phenoxy)ethanol], the pIC50 is 6.19.
